Laboratory results taken from publication PMC4450806, “The cytochrome bd-type quinol oxidase is important for survival of Mycobacterium smegmatis under peroxide and antibiotic-induced stress” (Scientific Reports, 2015).

Biological target: T1, cytochrome bd-type quinol oxidase (cytochrome bd) (Mycolicibacterium smegmatis, UniProt A0QXA8)
T1 construct: gene MSMEG_3233; native enzyme in inverted membrane vesicles of the ΔqcrCAB :: hyg strain (cytochrome bd as the only respiratory branch); with CydB (cytochrome bd subunit)
Test: NADH-driven oxygen consumption of inverted membrane vesicles (Clark-type electrode), wild-type versus bc1-knockout strain
Format: biochemical

## CC(C)=CCC/C(C)=C/CC/C(C)=C/Cc1c(C)[nH]c2ccccc2c1=O [aurachin D]
  IC50: ~400 nM
